Laboratory results reported in ChEMBL document CHEMBL1138545, “Synthesis and antimicrobial activities of some new triazolothiadiazoles bearing 4-methylthiobenzyl moiety” (2009).
Converted amounts (≈) assume the structure as drawn.

Assays:
Format in all cases: functional
[1] = test system: Aspergillus fumigatus; assay: Antifungal activity against Aspergillus fumigatus NICM 902 after 3 to days by serial plate dilution method; conditions: for MIC: Aspergillus fumigatus, NICM 902
[2] = test system: Klebsiella pneumoniae; assay: Antibacterial activity against Klebsiella pneumoniae after 24 hrs by the disk diffusion method; conditions: for MIC: Klebsiella pneumoniae, 24 h
[3] = test system: Aspergillus flavus; assay: Antifungal activity against Aspergillus flavus NICM 524 after 3 to days by serial plate dilution method; conditions: for MIC: Aspergillus flavus, NICM 524
[4] = test system: Trichophyton mentagrophytes; assay: Antifungal activity against Trichophyton mentagrophytes after 3 to days by serial plate dilution method; conditions: for MIC: Trichophyton mentagrophytes
[5] = test system: Pseudomonas aeruginosa; assay: Antibacterial activity against Pseudomonas aeruginosa ATTC 27853 after 24 hrs by the disk diffusion method; conditions: for MIC: Pseudomonas aeruginosa, ATTC 27853, 24 h
[6] = test system: Staphylococcus aureus; assay: Antibacterial activity against Staphylococcus aureus ATTC […] after 24 hrs by the disk diffusion method; conditions: for MIC: Staphylococcus aureus, 24 h
[7] = test system: Escherichia coli; assay: Antibacterial activity against Escherichia coli ATTC 25922 after 24 hrs by the disk diffusion method; conditions: for MIC: Escherichia coli, ATTC 25922, 24 h
[8] = test system: Candida albicans; assay: Antifungal activity against Candida albicans NICM 300 after 3 to days by serial plate dilution method; conditions: for MIC: Candida albicans, NICM 300

Row | MIC [1] | MIC [2] | MIC [3] | MIC [4] | MIC [5] | MIC [6] | MIC [7] | MIC [8] | Structure (SMILES) | diameter of the inhibition zone (DIZ) [1] | inhibition zone (IZ) [2] | diameter of the inhibition zone (DIZ) [3] | diameter of the inhibition zone (DIZ) [4] | inhibition zone (IZ) [5] | inhibition zone (IZ) [6] | inhibition zone (IZ) [7] | diameter of the inhibition zone (DIZ) [8]
1 | 6 µg/mL (≈ 15.1 µM) | 25 µg/mL (≈ 62.7 µM) | 25 µg/mL (≈ 62.7 µM) | 6 µg/mL (≈ 15.1 µM) | 6 µg/mL (≈ 15.1 µM) | 12.5 µg/mL (≈ 31.4 µM) | 12.5 µg/mL (≈ 31.4 µM) | 6 µg/mL (≈ 15.1 µM) | CSc1ccc(Cc2nn3c(Cc4ccc(SC)cc4)nnc3s2)cc1 | 22 mm | 13 mm | 17 mm | 20 mm | 18 mm | 18 mm | 16 mm | 19 mm
2 | 25 µg/mL (≈ 61.4 µM) | 25 µg/mL (≈ 61.4 µM) | 25 µg/mL (≈ 61.4 µM) | 25 µg/mL (≈ 61.4 µM) | 25 µg/mL (≈ 61.4 µM) | 25 µg/mL (≈ 61.4 µM) | 25 µg/mL (≈ 61.4 µM) | 25 µg/mL (≈ 61.4 µM) | CSc1ccc(Cc2nnc3sc(-c4cc(Cl)ccc4Cl)nn23)cc1 | 11 mm | 13 mm | 11 mm | 13 mm | 10 mm | 15 mm | 12 mm | 15 mm
3 | 25 µg/mL (≈ 65.2 µM) | 12.5 µg/mL (≈ 32.6 µM) | 25 µg/mL (≈ 65.2 µM) | 25 µg/mL (≈ 65.2 µM) | 6 µg/mL (≈ 15.6 µM) | 12.5 µg/mL (≈ 32.6 µM) | 12.5 µg/mL (≈ 32.6 µM) | 25 µg/mL (≈ 65.2 µM) | CSc1ccc(Cc2nnc3sc(-c4ccc([N+](=O)[O-])cc4)nn23)cc1 | 15 mm | 13 mm | 11 mm | 11 mm | 18 mm | 16 mm | 17 mm | 14 mm
4 | 25 µg/mL (≈ 49.2 µM) | 25 µg/mL (≈ 49.2 µM) | 12.5 µg/mL (≈ 24.6 µM) | 25 µg/mL (≈ 49.2 µM) | 25 µg/mL (≈ 49.2 µM) | 25 µg/mL (≈ 49.2 µM) | 25 µg/mL (≈ 49.2 µM) | 25 µg/mL (≈ 49.2 µM) | CSc1ccc(Cc2nnc3sc(-c4ccc(-c5cc(Cl)c(Cl)cc5Cl)o4)nn23)cc1 | 12 mm | 10 mm | 17 mm | 17 mm | 10 mm | 13 mm | 12 mm | 12 mm
5 | 25 µg/mL (≈ 56.6 µM) | 6 µg/mL (≈ 13.6 µM) | 25 µg/mL (≈ 56.6 µM) | 25 µg/mL (≈ 56.6 µM) | 12.5 µg/mL (≈ 28.3 µM) | 12.5 µg/mL (≈ 28.3 µM) | 12.5 µg/mL (≈ 28.3 µM) | 25 µg/mL (≈ 56.6 µM) | CSc1ccc(Cc2nnc3sc(-c4ccc(Cl)c(Cl)c4Cl)nn23)cc1 | 13 mm | 24 mm | 15 mm | 17 mm | 17 mm | 18 mm | 19 mm | 10 mm
6 | 6 µg/mL (≈ 14.1 µM) | 6 µg/mL (≈ 14.1 µM) | 6 µg/mL (≈ 14.1 µM) | 6 µg/mL (≈ 14.1 µM) | 12.5 µg/mL (≈ 29.4 µM) | 12.5 µg/mL (≈ 29.4 µM) | 6 µg/mL (≈ 14.1 µM) | 6 µg/mL (≈ 14.1 µM) | CSc1ccc(Cc2nnc3sc(-c4cc(F)c(Cl)cc4Cl)nn23)cc1 | 21 mm | 23 mm | 18 mm | 19 mm | 17 mm | 19 mm | 20 mm | 20 mm
7 | 6 µg/mL |  | 12.5 µg/mL | 6 µg/mL |  |  |  | 6 µg/mL | Cc1cc(C2CCCCC2)n(O)c(=O)c1.NCCO [CICLOPIROX OLAMINE] | 22 mm |  | 18 mm | 20 mm |  |  |  | 20 mm

More lines, now with the values behind:

Row | Structure (SMILES) | MIC [1] | MIC [2] | MIC [3] | MIC [4] | MIC [5] | MIC [6] | MIC [7] | MIC [8] | diameter of the inhibition zone (DIZ) [1] | inhibition zone (IZ) [2] | diameter of the inhibition zone (DIZ) [3] | diameter of the inhibition zone (DIZ) [4] | inhibition zone (IZ) [5] | inhibition zone (IZ) [6] | inhibition zone (IZ) [7] | diameter of the inhibition zone (DIZ) [8]
8 | CSc1ccc(Cc2nnc3sc(-c4ccc(-c5ccc(Cl)cc5[N+](=O)[O-])o4)nn23)cc1 | 6 µg/mL (≈ 12.4 µM) | 6 µg/mL (≈ 12.4 µM) | 12.5 µg/mL (≈ 25.8 µM) | 6 µg/mL (≈ 12.4 µM) | 6 µg/mL (≈ 12.4 µM) | 12.5 µg/mL (≈ 25.8 µM) | 6 µg/mL (≈ 12.4 µM) | 12.5 µg/mL (≈ 25.8 µM) | 22 mm | 23 mm | 18 mm | 17 mm | 18 mm | 18 mm | 19 mm | 18 mm
9 | CSc1ccc(Cc2nnc3sc(-c4ccc(-c5ccccc5C(F)(F)F)o4)nn23)cc1 | 6 µg/mL (≈ 12.7 µM) | 6 µg/mL (≈ 12.7 µM) | 25 µg/mL (≈ 52.9 µM) | 6 µg/mL (≈ 12.7 µM) | 6 µg/mL (≈ 12.7 µM) | 12.5 µg/mL (≈ 26.5 µM) | 12.5 µg/mL (≈ 26.5 µM) | 25 µg/mL (≈ 52.9 µM) | 20 mm | 25 mm | 11 mm | 20 mm | 18 mm | 19 mm | 18 mm | 15 mm
10 | CSc1ccc(Cc2nnc3sc(-c4ccc(-c5ccc(Cl)cc5)o4)nn23)cc1 | 12.5 µg/mL (≈ 28.5 µM) | 12.5 µg/mL (≈ 28.5 µM) | 25 µg/mL (≈ 57 µM) | 25 µg/mL (≈ 57 µM) | 6 µg/mL (≈ 13.7 µM) | 12.5 µg/mL (≈ 28.5 µM) | 6 µg/mL (≈ 13.7 µM) | 25 µg/mL (≈ 57 µM) | 17 mm | 22 mm | 10 mm | 16 mm | 18 mm | 18 mm | 20 mm | 12 mm
11 | CSc1ccc(Cc2nnc3sc(-c4ccc(Br)cc4)nn23)cc1 | 25 µg/mL (≈ 59.9 µM) | 25 µg/mL (≈ 59.9 µM) | 12.5 µg/mL (≈ 30 µM) | 25 µg/mL (≈ 59.9 µM) | 25 µg/mL (≈ 59.9 µM) | 25 µg/mL (≈ 59.9 µM) | 25 µg/mL (≈ 59.9 µM) | 25 µg/mL (≈ 59.9 µM) | 14 mm | 20 mm | 15 mm | 13 mm | 16 mm | 15 mm | 13 mm | 13 mm
12 | CSc1ccc(Cc2nnc3sc(-c4ccc(F)cc4)nn23)cc1 | 12.5 µg/mL (≈ 35.1 µM) | 6 µg/mL (≈ 16.8 µM) | 12.5 µg/mL (≈ 35.1 µM) | 12.5 µg/mL (≈ 35.1 µM) | 12.5 µg/mL (≈ 35.1 µM) | 12.5 µg/mL (≈ 35.1 µM) | 12.5 µg/mL (≈ 35.1 µM) | 25 µg/mL (≈ 70.1 µM) | 19 mm | 25 mm | 16 mm | 17 mm | 17 mm | 18 mm | 19 mm | 10 mm
13 | CSc1ccc(Cc2nnc3sc(-c4ccc(-c5ccc(Br)cc5)o4)nn23)cc1 | 6 µg/mL (≈ 12.4 µM) | 25 µg/mL (≈ 51.7 µM) | 12.5 µg/mL (≈ 25.9 µM) | 6 µg/mL (≈ 12.4 µM) | 25 µg/mL (≈ 51.7 µM) | 25 µg/mL (≈ 51.7 µM) | 25 µg/mL (≈ 51.7 µM) | 6 µg/mL (≈ 12.4 µM) | 20 mm | 15 mm | 17 mm | 20 mm | 11 mm | 12 mm | 11 mm | 18 mm
14 | CSc1ccc(Cc2nnc3sc(Cc4ccccc4)nn23)cc1 | 25 µg/mL (≈ 70.9 µM) | 25 µg/mL (≈ 70.9 µM) | 25 µg/mL (≈ 70.9 µM) | 25 µg/mL (≈ 70.9 µM) | 25 µg/mL (≈ 70.9 µM) | 25 µg/mL (≈ 70.9 µM) | 25 µg/mL (≈ 70.9 µM) | 6 µg/mL (≈ 17 µM) | 13 mm | 14 mm | 10 mm | 12 mm | 15 mm | 11 mm | 11 mm | 17 mm
15 | CSc1ccc(Cc2nnc3sc(-c4ccc(-c5ccc([N+](=O)[O-])cc5)o4)nn23)cc1 | 25 µg/mL (≈ 55.6 µM) | 12.5 µg/mL (≈ 27.8 µM) | 25 µg/mL (≈ 55.6 µM) | 25 µg/mL (≈ 55.6 µM) | 25 µg/mL (≈ 55.6 µM) | 25 µg/mL (≈ 55.6 µM) | 25 µg/mL (≈ 55.6 µM) | 12.5 µg/mL (≈ 27.8 µM) | 14 mm | 20 mm | 11 mm | 11 mm | 10 mm | 16 mm | 17 mm | 17 mm
16 | CSc1ccc(Cc2nnc3sc(-c4ccc([N+](=O)[O-])cc4Cl)nn23)cc1 | 6 µg/mL (≈ 14.4 µM) | 6 µg/mL (≈ 14.4 µM) | 12.5 µg/mL (≈ 29.9 µM) | 6 µg/mL (≈ 14.4 µM) | 12.5 µg/mL (≈ 29.9 µM) | 12.5 µg/mL (≈ 29.9 µM) | 12.5 µg/mL (≈ 29.9 µM) | 6 µg/mL (≈ 14.4 µM) | 22 mm | 23 mm | 17 mm | 19 mm | 17 mm | 19 mm | 18 mm | 20 mm
17 | CSc1ccc(Cc2nnc3sc(-c4ccc(O)cc4)nn23)cc1 | 6 µg/mL (≈ 16.9 µM) | 25 µg/mL (≈ 70.5 µM) | 12.5 µg/mL (≈ 35.3 µM) | 6 µg/mL (≈ 16.9 µM) | 25 µg/mL (≈ 70.5 µM) | 25 µg/mL (≈ 70.5 µM) | 25 µg/mL (≈ 70.5 µM) | 6 µg/mL (≈ 16.9 µM) | 22 mm | 17 mm | 18 mm | 18 mm | 12 mm | 12 mm | 10 mm | 20 mm
